According to PubChem BioAssay (NCI):
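How tested: cells in 96-well plates exposed to compound for 48 hours at five concentrations. GI50 is the concentration that inhibits growth by half. At the TGI there is no net growth.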

Assays:
Experiment in all cases: inhibition of tumour cell growth, NCI panel, 48 h
IGROV1 ovarian = tested on: IGROV1 ovarian
MOLT-4 leukemia = tested on: MOLT-4 leukemia
NCI-H226 lung = tested on: NCI-H226 lung
T-47D breast = tested on: T-47D breast
MDA-MB-231 breast = tested on: MDA-MB-231 breast
CCRF-CEM leukemia = tested on: CCRF-CEM leukemia
MALME-3M melanoma = tested on: MALME-3M melanoma
SR leukemia = tested on: SR leukemia
K-562 leukemia = tested on: K-562 leukemia
SW-620 colon = tested on: SW-620 colon
TK-10 renal = tested on: TK-10 renal
SF-539 CNS = tested on: SF-539 CNS
HCC-2998 colon = tested on: HCC-2998 colon
SK-OV-3 ovarian = tested on: SK-OV-3 ovarian
BT-549 breast = tested on: BT-549 breast
OVCAR-8 ovarian = tested on: OVCAR-8 ovarian
NCI-H460 lung = tested on: NCI-H460 lung
EKVX NSCLC = tested on: EKVX NSCLC
SNB-75 CNS = tested on: SNB-75 CNS
HL-60(TB) leukemia = tested on: HL-60(TB) leukemia
SN12C renal = tested on: SN12C renal
UACC-62 melanoma = tested on: UACC-62 melanoma
UACC-257 melanoma = tested on: UACC-257 melanoma
OVCAR-5 ovarian = tested on: OVCAR-5 ovarian
NCI/ADR-RES ovarian = tested on: NCI/ADR-RES ovarian
SK-MEL-5 melanoma = tested on: SK-MEL-5 melanoma
COLO 205 colon = tested on: COLO 205 colon
HOP-92 NSCLC = tested on: HOP-92 NSCLC
MDA-MB-435 = tested on: MDA-MB-435

With `O=C1/C(=C/c2ccc(Cl)cc2)COc2ccc(O)cc21` the GI50 (IGROV1 ovarian) was 1.67 µM, the TGI (IGROV1 ovarian) was 3.31 µM and the GI50 (MOLT-4 leukemia) was 1.84 µM. It also gave a TGI (MOLT-4 leukemia) of 8.23 µM, a GI50 (NCI-H226 lung) of 2.68 µM and a TGI (NCI-H226 lung) of 7.61 µM. The GI50 (T-47D breast) was 2.22 µM, the TGI (T-47D breast) was 5.59 µM and the GI50 (MDA-MB-231 breast) was 2.73 µM. It also gave a TGI (MDA-MB-231 breast) of 8.62 µM, a GI50 (CCRF-CEM leukemia) of 0.291 µM and a TGI (CCRF-CEM leukemia) of 1.82 µM. It also gave a GI50 (MALME-3M melanoma) of 2.37 µM, a TGI (MALME-3M melanoma) of 6.08 µM and a GI50 (SR leukemia) of 0.663 µM. The TGI (SR leukemia) was 5.3 µM, the GI50 (K-562 leukemia) was 2.55 µM and the TGI (K-562 leukemia) was 25.8 µM. The GI50 (SW-620 colon) was 1.87 µM, the TGI (SW-620 colon) was 4.26 µM and the GI50 (TK-10 renal) was 3.33 µM. The TGI (TK-10 renal) was 13.4 µM, the GI50 (SF-539 CNS) was 1.8 µM and the TGI (SF-539 CNS) was 3.56 µM. It also gave a GI50 (HCC-2998 colon) of 1.82 µM, a TGI (HCC-2998 colon) of 3.33 µM and a GI50 (SK-OV-3 ovarian) of 14 µM. The TGI (SK-OV-3 ovarian) was 44.5 µM, the GI50 (BT-549 breast) was 3.34 µM and the TGI (BT-549 breast) was 11.5 µM. It also gave a GI50 (OVCAR-8 ovarian) of 3 µM, a TGI (OVCAR-8 ovarian) of 11 µM and a GI50 (NCI-H460 lung) of 3.32 µM. The TGI (NCI-H460 lung) was 11.2 µM, the GI50 (EKVX NSCLC) was 7.31 µM and the TGI (EKVX NSCLC) was 20.4 µM. It also gave a GI50 (SNB-75 CNS) of 12.5 µM, a TGI (SNB-75 CNS) of 26.3 µM and a GI50 (HL-60(TB) leukemia) of 1.36 µM. The TGI (HL-60(TB) leukemia) was 4.36 µM, the GI50 (SN12C renal) was 1.86 µM and the TGI (SN12C renal) was 4.22 µM. The GI50 (UACC-62 melanoma) was 2.23 µM, the TGI (UACC-62 melanoma) was 5.46 µM and the GI50 (UACC-257 melanoma) was 3.16 µM. It also gave a TGI (UACC-257 melanoma) of 13 µM, a GI50 (OVCAR-5 ovarian) of 2.44 µM and a TGI (OVCAR-5 ovarian) of 6.81 µM. For the same compound, the GI50 (NCI/ADR-RES ovarian) was 2.99 µM, the TGI (NCI/ADR-RES ovarian) was 9.13 µM and the GI50 (SK-MEL-5 melanoma) was 2.32 µM. It also gave a TGI (SK-MEL-5 melanoma) of 5.37 µM, a GI50 (COLO 205 colon) of 1.86 µM and a TGI (COLO 205 colon) of 4.63 µM. The GI50 (HOP-92 NSCLC) was 8.84 µM, the TGI (HOP-92 NSCLC) was 37.6 µM and the GI50 (MDA-MB-435) was 2.77 µM. For the same compound, the TGI (MDA-MB-435) was 8.2 µM.
